Results: patent publication US20240335442A1 (Eurofarma Laboratórios S.A., priority 2021, published 2024)

Legend:
[1] = biological target: human sodium channel Nav 1.7 (Homo sapiens (Human), UniProt Q15858); test: Automated whole-cell voltage-clamp (ScreenPatch 384P), Nav 1.7 sodium current, Protocol 2; type: cell-based; conditions: read-out: Nav1.7 IC50
Method: (§1) Biological assays were performed on Chinese hamster ovary (CHO) cells expressing the human sodium channels Nav 1.8 and Nav 1.7 stably.
(§2) The experimental voltage-clamp protocol using the whole cell configuration was established on the automated ScreenPatch® 384P platform (SP384PE, Nanion Technologies, Livingston, NJ) and recording of the results was performed with a Nanion 384-well Patch Clamp chip (NPC) (Nanion Technologies, Livingston, NJ).
(§3) Compounds of Formula (I), were diluted in eight concentrations in the extracellular solution composed of physiological saline, buffered with HEPES (mM): NaCl, 137; KCl, 4; CaCl2, 3.8; MgCl2, 1; HEPES, 10; Glucose, 10; pH 7.4. The […], 50; CsF, 90; MgCl2, 5; EGTA, 5; HEPES, 10; pH 7.2. The duration of exposure of each compound with the cells expressing Nav 1.7 or Nav 1.8 was at least five minutes and the assays were performed at room temperature.
(§4) The measurements of the sodium currents of Nav 1.8 and Nav 1.7 were obtained using the voltage protocols described below: • Protocol 1: A holding voltage of-90 mV was established followed by a voltage phase of 200 ms to-120 mV, followed by a voltage step of 10 mV for 1 second for Nav 1.8 or 0 mV for Nav 1.7, followed by a step of-100 mV for 20 ms, followed by a step of 20 ms for 10 mV for Nav 1.8 or 0 mV for Nav 1.7 (TP1A) before returning to the holding voltage of-90 mV. • Protocol 2: A holding voltage of-100 mV was established followed by an inactivation voltage step at −40 mV for 8 seconds, followed by a −100 mV step for 20 ms, followed by a 20 ms step for 10 mV for Nav 1.8 or 0 mV for Nav 1.7 (TP1A) before returning to the holding voltage of-100 mV.
(§5) Protocols were repeated at a frequency of 0.1 Hz (Protocol 1) or 0.05 Hz (Protocol 2) and current amplitude was quantified over the TP1A phase log. The variation in the peak amplitude of the current was evaluated according to the Formula described below, after exposure of the cells expressing the channels, at each concentration of the different compounds:
(§6) where ITP1A,basal, and ITP1A,molecule represent the entry peaks of sodium currents into TP1A prior to exposure to the compound and in the presence of the compound, respectively.
(§7) The decrease in peak current amplitude, after exposure of the cells to the compounds, was used to calculate the percent relative blocking of the channels relative to the positive control according to the Formula below: […]
(§8) where % V and % CP represent the averages of the values of current inhibition with a vehicle (DMSO) and positive controls, respectively. The sodium currents of the positive control were considered as 100%.
(§9) where [Test] represents the concentration of the evaluated molecule, IC50 is the concentration of the compound that generates half of the maximum inhibition, N is the Hill's coefficient and % Block′ is the percentage of the sodium channel current (Nav 1.8 and Nav 1.7) inhibited at each concentration of the evaluated molecule. Data were obtained by non linear least squares regression with XL fit for Excel (Microsoft, Redmond, WA).
(§10) Compounds were tested in at least one assay to obtain the IC50 value.

[2] = biological target: human sodium channel Nav 1.8 (Homo sapiens (Human), UniProt Q9Y5Y9); test: Automated whole-cell voltage-clamp (ScreenPatch 384P), Nav 1.8 sodium current, Protocol 2; type: cell-based; conditions: read-out: Nav1.8 IC50
Sequence of human sodium channel Nav 1.8 (Q9Y5Y9 whole entry): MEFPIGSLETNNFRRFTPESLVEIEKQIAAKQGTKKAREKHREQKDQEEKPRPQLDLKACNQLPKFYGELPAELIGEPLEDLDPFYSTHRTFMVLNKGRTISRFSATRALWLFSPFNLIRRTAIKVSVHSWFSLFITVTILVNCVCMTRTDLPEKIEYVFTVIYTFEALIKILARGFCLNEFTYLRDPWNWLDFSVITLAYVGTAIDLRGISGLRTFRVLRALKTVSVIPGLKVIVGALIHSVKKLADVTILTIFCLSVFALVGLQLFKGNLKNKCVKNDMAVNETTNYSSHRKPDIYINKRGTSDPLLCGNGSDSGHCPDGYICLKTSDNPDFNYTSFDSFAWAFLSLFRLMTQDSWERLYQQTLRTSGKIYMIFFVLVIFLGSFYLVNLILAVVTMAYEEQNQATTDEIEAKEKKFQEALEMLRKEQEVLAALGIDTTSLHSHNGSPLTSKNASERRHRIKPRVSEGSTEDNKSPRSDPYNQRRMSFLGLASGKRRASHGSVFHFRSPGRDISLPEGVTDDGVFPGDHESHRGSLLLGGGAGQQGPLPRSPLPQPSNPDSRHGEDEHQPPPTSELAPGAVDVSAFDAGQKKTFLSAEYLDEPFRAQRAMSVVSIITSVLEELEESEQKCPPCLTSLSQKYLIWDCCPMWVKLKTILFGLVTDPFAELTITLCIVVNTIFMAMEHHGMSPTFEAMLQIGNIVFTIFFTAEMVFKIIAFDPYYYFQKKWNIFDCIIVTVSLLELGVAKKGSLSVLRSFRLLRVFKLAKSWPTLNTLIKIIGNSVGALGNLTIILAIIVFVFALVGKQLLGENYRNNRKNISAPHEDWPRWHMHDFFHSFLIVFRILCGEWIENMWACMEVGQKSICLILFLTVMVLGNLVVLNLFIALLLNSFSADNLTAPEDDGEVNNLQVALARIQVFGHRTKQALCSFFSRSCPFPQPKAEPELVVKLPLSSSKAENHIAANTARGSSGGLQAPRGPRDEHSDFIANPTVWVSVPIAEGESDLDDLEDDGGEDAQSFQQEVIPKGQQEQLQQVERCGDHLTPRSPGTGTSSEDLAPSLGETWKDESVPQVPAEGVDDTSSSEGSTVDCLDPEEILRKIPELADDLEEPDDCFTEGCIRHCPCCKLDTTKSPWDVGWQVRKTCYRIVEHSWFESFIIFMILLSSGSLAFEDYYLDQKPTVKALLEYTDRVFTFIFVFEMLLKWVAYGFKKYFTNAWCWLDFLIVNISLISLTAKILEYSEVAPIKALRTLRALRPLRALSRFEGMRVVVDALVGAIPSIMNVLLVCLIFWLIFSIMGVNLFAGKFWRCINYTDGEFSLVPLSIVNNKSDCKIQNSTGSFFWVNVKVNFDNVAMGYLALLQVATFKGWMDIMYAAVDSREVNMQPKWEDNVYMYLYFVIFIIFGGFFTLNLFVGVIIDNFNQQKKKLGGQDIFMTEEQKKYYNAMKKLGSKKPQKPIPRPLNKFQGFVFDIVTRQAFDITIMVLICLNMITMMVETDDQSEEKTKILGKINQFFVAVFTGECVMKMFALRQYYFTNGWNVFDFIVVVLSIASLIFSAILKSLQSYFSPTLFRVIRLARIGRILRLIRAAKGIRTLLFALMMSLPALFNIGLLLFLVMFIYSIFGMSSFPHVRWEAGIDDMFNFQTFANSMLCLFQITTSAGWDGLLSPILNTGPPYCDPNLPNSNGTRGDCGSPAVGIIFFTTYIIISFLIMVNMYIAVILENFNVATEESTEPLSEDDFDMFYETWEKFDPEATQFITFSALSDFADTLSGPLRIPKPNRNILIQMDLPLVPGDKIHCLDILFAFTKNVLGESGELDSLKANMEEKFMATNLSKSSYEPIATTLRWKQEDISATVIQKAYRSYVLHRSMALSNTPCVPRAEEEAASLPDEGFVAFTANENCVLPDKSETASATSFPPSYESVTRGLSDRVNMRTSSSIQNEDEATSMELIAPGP
Method: as §1, §2, §3, §4, §5, §6, §7, §8, §9, §10

Sequence of human sodium channel Nav 1.7 (Q15858 whole entry): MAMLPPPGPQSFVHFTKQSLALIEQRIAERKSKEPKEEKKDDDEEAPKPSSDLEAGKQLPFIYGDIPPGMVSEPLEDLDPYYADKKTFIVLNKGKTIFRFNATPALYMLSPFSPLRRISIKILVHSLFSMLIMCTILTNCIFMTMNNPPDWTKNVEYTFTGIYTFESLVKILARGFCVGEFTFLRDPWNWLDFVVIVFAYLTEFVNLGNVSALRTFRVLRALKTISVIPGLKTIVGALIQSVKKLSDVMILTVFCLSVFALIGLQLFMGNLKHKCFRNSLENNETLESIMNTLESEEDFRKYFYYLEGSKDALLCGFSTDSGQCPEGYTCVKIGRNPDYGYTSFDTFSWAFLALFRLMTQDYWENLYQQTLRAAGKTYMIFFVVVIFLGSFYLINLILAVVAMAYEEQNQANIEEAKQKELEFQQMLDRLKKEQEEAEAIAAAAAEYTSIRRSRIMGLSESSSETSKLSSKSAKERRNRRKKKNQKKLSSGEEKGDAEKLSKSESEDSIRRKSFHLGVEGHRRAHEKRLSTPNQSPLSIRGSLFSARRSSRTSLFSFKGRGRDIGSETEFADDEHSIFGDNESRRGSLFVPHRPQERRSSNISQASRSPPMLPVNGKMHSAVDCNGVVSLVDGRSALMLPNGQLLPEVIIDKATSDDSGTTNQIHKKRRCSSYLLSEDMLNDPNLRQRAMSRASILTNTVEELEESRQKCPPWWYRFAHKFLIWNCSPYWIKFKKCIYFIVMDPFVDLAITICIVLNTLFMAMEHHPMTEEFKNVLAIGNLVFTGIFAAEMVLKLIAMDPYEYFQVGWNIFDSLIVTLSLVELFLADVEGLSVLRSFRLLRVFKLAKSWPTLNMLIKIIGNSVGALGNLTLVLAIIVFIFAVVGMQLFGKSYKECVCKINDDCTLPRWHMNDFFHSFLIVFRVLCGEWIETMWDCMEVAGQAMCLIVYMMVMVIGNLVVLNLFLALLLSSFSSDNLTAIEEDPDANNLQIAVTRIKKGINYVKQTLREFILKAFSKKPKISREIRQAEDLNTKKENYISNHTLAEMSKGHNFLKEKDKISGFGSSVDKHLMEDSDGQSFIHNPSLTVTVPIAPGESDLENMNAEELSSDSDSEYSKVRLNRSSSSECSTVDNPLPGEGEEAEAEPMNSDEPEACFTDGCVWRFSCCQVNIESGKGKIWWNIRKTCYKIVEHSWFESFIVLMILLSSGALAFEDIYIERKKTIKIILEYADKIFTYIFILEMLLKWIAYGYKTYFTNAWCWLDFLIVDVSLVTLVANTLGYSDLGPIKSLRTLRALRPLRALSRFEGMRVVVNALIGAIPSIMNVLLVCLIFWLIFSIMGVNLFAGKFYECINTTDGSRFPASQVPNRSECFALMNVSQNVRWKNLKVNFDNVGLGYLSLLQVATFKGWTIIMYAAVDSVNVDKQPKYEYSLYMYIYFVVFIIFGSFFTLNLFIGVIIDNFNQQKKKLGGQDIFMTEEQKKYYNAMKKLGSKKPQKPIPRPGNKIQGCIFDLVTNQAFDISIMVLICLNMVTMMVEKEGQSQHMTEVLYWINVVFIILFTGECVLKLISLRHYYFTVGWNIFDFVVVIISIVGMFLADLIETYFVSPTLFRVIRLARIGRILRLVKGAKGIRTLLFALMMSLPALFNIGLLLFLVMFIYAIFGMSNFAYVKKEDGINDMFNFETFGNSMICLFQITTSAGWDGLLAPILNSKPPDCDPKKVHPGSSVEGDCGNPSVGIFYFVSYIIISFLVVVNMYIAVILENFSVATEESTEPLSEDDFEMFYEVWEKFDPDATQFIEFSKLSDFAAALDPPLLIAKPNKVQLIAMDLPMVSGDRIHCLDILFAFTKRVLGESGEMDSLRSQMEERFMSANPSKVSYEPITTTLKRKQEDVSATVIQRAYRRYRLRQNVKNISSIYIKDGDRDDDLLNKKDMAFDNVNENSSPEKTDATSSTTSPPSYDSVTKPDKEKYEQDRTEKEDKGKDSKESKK

| Structure (SMILES) | IC50 [1] | IC50 [2] |
| --- | --- | --- |
| COc1cc(/C=N/NC(=O)c2cncc(-c3ccccn3)n2)cc(OC)c1 [Compound 125, (E)-N′-(3,5-dimethoxybenzylidene)-6-(pyridin-2-yl)pyrazine-2-carbohydrazide] | > 10000 nM | > 1000 nM |
| COc1ccc(-c2cncc(C(=O)N/N=C/c3cccc(CN(C)C)c3)n2)cc1 [Compound 38, (E)-N′-(3-((dimethylamino)methyl)benzylidene)-6-(4-methoxyphenyl)pyrazine-2-carbohydrazide] | > 10000 nM | > 1000 nM |
| COc1cc(/C=N/NC(=O)c2cnc(C)cn2)cc(OC)c1 [Compound 138, (E)-N′-(3,5-dimethoxybenzylidene)-5-methylpyrazine-2-carbohydrazide] | > 10000 nM | > 1000 nM |
| CCOc1ccc(-c2cncc(C(=O)N/N=C/c3cccc(OC)c3)n2)c(OC)c1 [Compound 108, (E)-6-(4-ethoxy-2-methoxyphenyl)-N′-(3-methoxybenzylidene)pyrazine-2-carbohydrazide] | 30.8 nM | 17.7 nM |
| COc1ccc(-c2cncc(C(=O)N/N=C/c3ccc(OC)cc3OC)n2)cc1 [Compound 78, (E)-N′-(2,4-dimethoxybenzylidene)-6-(4-methoxyphenyl)pyrazine-2-carbohyrazide] | 7150 nM | 841 nM |
| COc1cc(/C=N/NC(=O)c2cncc(-c3ccc(OC4CCCC4)cc3Cl)n2)cc(OC)c1 [Compound 157, (E)-6-(2-chloro-4-(cyclopentyloxy)phenyl)-N′-(3,5-dimethoxybenzylidene)pyrazine-2-carbohydrazide] | 180 nM | 456 nM |
| CCOc1ccc(-c2cncc(C(=O)N/N=C/c3cccc(OC)c3)n2)c(C(F)(F)F)c1 [Compound 120, (E)-6-(4-ethoxy-2-(trifluoromethyl)phenyl)-N′-(3-methoxybenzylidene)pyrazine-2-carbohydrazide] | 116 nM | 133 nM |
| CCOc1ccc(-c2cncc(C(=O)N/N=C/C3CCCCCC3)n2)cc1 [Compound 182, (E)-N′-(cycloheptylmethylene)-6-(4-ethoxyphenyl)pyrazine-2-carbohyrazide] | > 10000 nM | 300 nM |
| COc1cc(/C=N/NC(=O)c2nccnc2C(C)C)cc(OC)c1 [Compound 135, (E)-N′-(3,5-dimethoxybenzylidene)-3-isopropylpyrazine-2-carbohydrazide] | > 10000 nM | > 1000 nM |
| CCOc1ccc(-c2cncc(C(=O)N/N=C/c3cccc(OC)c3)n2)c(OCC)c1 [Compound 153, (E)-6-(2,4-diethoxyphenyl)-N′-(3-methoxybenzylidene)pyrazine-2-carbohydrazide] | 228 nM | 121 nM |

More lines, now with the values ahead:

| IC50 [1] | IC50 [2] | Structure (SMILES) |
| --- | --- | --- |
| > 10000 nM | > 1000 nM | COc1cc(/C=N/NC(=O)c2cncc(-c3ccncc3)n2)cc(OC)c1 [Compound 103, (E)-N′-(3,5-dimethoxybenzylidene)-6-(pyridin-4-yl)pyrazine-2-carbohydrazide] |
| 1000 nM | 433 nM | CCCc1ccc(-c2cncc(C(=O)N/N=C/c3cc(OC)cc(OC)c3)n2)cc1 [Compound 113, (E)-N′-(3,5-dimethoxybenzylidene)-6-(4-propylphenyl)pyrazine-2-carbohydrazide] |
| > 10000 nM | > 1000 nM | COc1cc(/C=N/NC(=O)c2cncc(-c3ccccc3F)n2)cc(OC)c1 [Compound 98, (E)-N′-(3,5-dimethoxybenzylidene)-6-(2-fluorophenyl)pyrazine-2-carbohydrazide] |
| 7860 nM | 232 nM | CCOc1ccc(-c2cncc(C(=O)N/N=C/c3cc(OC)c(F)c(OC)c3)n2)cc1 [Compound 17, (E)-6-(4-ethoxyphenyl)-N′-(4-fluoro-3,5-dimethoxybenzylidene)pyrazine-2-carbohydrazide] |
| 210 nM | 73.9 nM | CCCOc1ccc(-c2cncc(C(=O)N/N=C/c3cc(OC)cc(OC)c3)n2)cc1 [Compound 32, N′-[(E)-(3,5-dimethoxyphenyl)methylidene]-6-(4-propoxyphenyl)pyrazine-2-carbohydrazide] |
